The term IC50 denotes the concentration at which inhibition is half-maximal. A lower IC50 goes with higher potency.

The nature of test [1]: Inhibition of Tel-fused LCK expressed in mouse BAF3 cells.
Test [2] can be described thus: Inhibition of Tel-fused KDR expressed in mouse BAF3 cells.
Test [3] in a line: Inhibition of Tel-fused LYN expressed in mouse BAF3 cells.
Test [4] is described as follows: Inhibition of Tel-fused SRC expressed in mouse BAF3 cells.

The structures appear in SMILES notation.

As to `Cc1ccc(NC(=O)c2cccc(C(F)(F)F)c2)cc1Nc1nc2ccccc2n1-c1cc(N[C@H]2CC[C@H](N)CC2)ncn1` [N-(3-(1-(6-(trans-4-aminocyclohexylamino)pyrimidin-4-yl)-1H-benzo[d]imidazol-2-ylamino)-4-methylphenyl)-3-(trifluoromethyl)benzamide], the IC50 was found to be 392 nM in test [1], 609 nM in test [2], 547 nM in test [3] and 739 nM in test [4].
In the same order, the values of `Cc1ccc(C(=O)Nc2cccc3cnccc23)cc1Nc1nc2ccccc2n1-c1cc(N)ncn1` [3-(1-(6-aminopyrimidin-4-yl)-1H-benzo[d]imidazol-2-ylamino)-N-(isoquinolin-5-yl)-4-methylbenzamide] are 3240 nM, 10600 nM, 7840 nM and 7610 nM.
With `Cc1ccc(NC(=O)c2cccc(C(F)(F)F)c2)cc1Nc1nc2ccccc2n1-c1cc(NC2CCN(C)CC2)ncn1` [N-(4-methyl-3-(1-(6-(1-methylpiperidin-4-ylamino)pyrimidin-4-yl)-1H-benzo[d]imidazol-2-ylamino)phenyl)-3-(trifluoromethyl)benzamide], the IC50 in test [1] is 881 nM; in test [2] it was 1710 nM; in test [3], 1420 nM; in test [4], 1380 nM.
As to `Cc1cn(-c2cc(NC(=O)c3ccc(C)c(Nc4nc5ccccc5n4-c4cc(N)ncn4)c3)cc(C(F)(F)F)c2)cn1` [3-(1-(6-aminopyrimidin-4-yl)-1H-benzo[d]imidazol-2-ylamino)-4-methyl-N-(3-(4-methyl-1H-imidazol-1-yl)-5-(trifluoromethyl)phenyl)benzamide], the IC50 in test [1] came out at 14 nM; in test [2], 20 nM; in test [3], 28 nM; in test [4], 107 nM.
In the same order, the values of `COc1cccc(NC(=O)c2ccc(C)c(Nc3nc4ccccc4n3-c3cc(N)ncn3)c2)c1` [3-(1-(6-aminopyrimidin-4-yl)-1H-benzo[d]imidazol-2-ylamino)-N-(3-methoxyphenyl)-4-methylbenzamide] are 157 nM, 516 nM, 437 nM and 4390 nM.
Regarding `Cc1ccc(C(=O)Nc2cccc(C(F)(F)F)c2)cc1Nc1nc2ccccc2n1-c1cc(NCCCCN(C)C)ncn1` [3-(1-(6-(4-(dimethylamino)butylamino)pyrimidin-4-yl)-1H-benzo[d]imidazol-2-ylamino)-4-methyl-N-(3-(trifluoromethyl)phenyl)benzamide], the half-maximal inhibitory concentration (IC50) in test [1] was found to be 38 nM; in test [2] it was 249 nM; in test [3], 134 nM; in test [4], 556 nM.
For the compound `Cc1ccc(NC(=O)c2cccc(C(F)(F)F)c2)cc1Nc1nc2ccccc2n1-c1cc(NCCCC2COCCN2)ncn1` (stereo not given) [N-(4-methyl-3-(1-(6-(3-(morpholin-3-yl)propylamino)pyrimidin-4-yl)-1H-benzo[d]imidazol-2-ylamino)phenyl)-3-(trifluoromethyl)benzamide], the IC50 in test [1] turned out to be 40 nM; in test [2] it was 318 nM; in test [3] it was 67 nM; in test [4] it was 600 nM.
Turning to `CCN(CC)CCCCNc1cc(-n2c(Nc3cc(C(=O)Nc4cccc(C)c4)ccc3C)nc3ccccc32)ncn1` [3-(1-(6-(4-(diethylamino)butylamino)pyrimidin-4-yl)-1H-benzo[d]imidazol-2-ylamino)-4-methyl-N-m-tolylbenzamide], the IC50 in test [1] came to 406 nM; in test [2] it was 1360 nM; in test [3], 1320 nM; in test [4] it was 1060 nM.
Consider `Cc1ccc(C(=O)Nc2cccc(C(F)(F)F)c2)cc1Nc1nc2ccccc2n1-c1cc(N)ncn1` [3-(1-(6-aminopyrimidin-4-yl)-1H-benzo[d]imidazol-2-ylamino)-4-methyl-N-(3-(trifluoromethyl)phenyl)benzamide], for which the IC50 in test [1] is 20 nM; in test [2], 55 nM; in test [3], 15 nM; in test [4], greater than 10000 nM.
In the same order, the values of `Cc1ccc(NC(=O)c2cc(N3CCN(C)CC3)cc(C(F)(F)F)c2)cc1Nc1nc2ccccc2n1-c1cc(N)ncn1` [N-(3-(1-(6-aminopyrimidin-4-yl)-1H-benzo[d]imidazol-2-ylamino)-4-methylphenyl)-3-(4-methylpiperazin-1-yl)-5-(trifluoromethyl)benzamide] are 3 nM, 43 nM, 6 nM and 47 nM.
With `Cc1ccc(NC(=O)c2cccc(C(F)(F)F)c2)cc1Nc1nc2ccccc2n1-c1cc(NCCCN)ncn1` [N-(3-(1-(6-(3-aminopropylamino)pyrimidin-4-yl)-1H-benzo[d]imidazol-2-ylamino)-4-methylphenyl)-3-(trifluoromethyl)benzamide], the IC50 is 387 nM in test [1], 1470 nM in test [2], 1120 nM in test [3] and 1320 nM in test [4].
In the same order, the values of `Cc1ccc(NC(=O)c2cccc(C(F)(F)F)c2)cc1Nc1nc2ccccc2n1-c1cc(NCCO)ncn1` [N-(3-(1-(6-(2-hydroxyethylamino)pyrimidin-4-yl)-1H-benzo[d]imidazol-2-ylamino)-4-methylphenyl)-3-(trifluoromethyl)benzamide] are 229 nM, 590 nM, 400 nM and 1700 nM.
As to `Cc1cccc(NC(=O)c2ccc(C)c(Nc3nc4ccccc4n3-c3cc(NCCN4CCN(C)CC4)ncn3)c2)c1` [4-methyl-3-(1-(6-(2-(4-methylpiperazin-1-yl)ethylamino)pyrimidin-4-yl)-1H-benzo[d]imidazol-2-ylamino)-N-m-tolylbenzamide], the half-maximal inhibitory concentration (IC50) in test [1] came to 762 nM; in test [2], 2090 nM; in test [3], 1660 nM; in test [4] it was 1540 nM.
In the same order, the values of `Cc1ccc(C(=O)Nc2cccc(C(N)=O)c2)cc1Nc1nc2ccccc2n1-c1cc(N)ncn1` [3-(1-(6-aminopyrimidin-4-yl)-1H-benzo[d]imidazol-2-ylamino)-N-(3-carbamoylphenyl)-4-methylbenzamide] are greater than 10000 nM, greater than 10000 nM, greater than 10000 nM and greater than 10000 nM.
On to `Cc1ccc(C(=O)Nc2cccc(C(F)(F)F)c2)cc1Nc1nc2ccccc2n1-c1ncnc(NCCCN2CCN(C)CC2)n1` [4-methyl-3-(1-(4-(3-(4-methylpiperazin-1-yl)propylamino)-1,3,5-triazin-2-yl)-1H-benzo[d]imidazol-2-ylamino)-N-(3-(trifluoromethyl)phenyl)benzamide], for which the IC50 is 20 nM in test [1], 133 nM in test [2], 43 nM in test [3] and 117 nM in test [4].

(Values after BindingDB's records for doi:10.1016/j.bmcl.2009.09.123 (Genomics Institute of The Novartis Research Foundation, 2009).)
